Common to all, as to experiment: NCI tumour cell line growth inhibition, 48 h
In assay [1] the test system is HCT-15 colon.
Assay [2] concerns OVCAR-5 ovarian.
For assay [3], the system named is PC-3 prostate.
The test system of assay [4] is U251 CNS.
Assay [5] deals with SW-620 colon.
Assay [6] relates to SF-268 CNS.
Assay [7] concerns COLO 205 colon.
The test system of assay [8] is TK-10 renal.
For assay [9], the system named is SR leukemia.
Assay [10] concerns HT29 colon.

The values below come from PubChem BioAssay (NCI).

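Following 48 hours of exposure in 96-well plates, responses at five concentrations were used to interpolate endpoints linearly. GI50 is the concentration that inhibits growth by half. TGI: total growth inhibition.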

Turning to `CNC(=S)N/N=C/CSC/C=N/NC(=S)NC`, the GI50 is 34.5 µM in assay [1]; greater than 100 µM in assay [2]; greater than 100 µM in assay [3]; greater than 100 µM in [4]; 41.1 µM in assay [5]; greater than 100 µM in assay [6]. For the same compound, the GI50 in assay [7] is greater than 100 µM; in assay [8], greater than 100 µM; in assay [9], 0.799 µM. The TGI in assay [1], in [2], in assay [3], in assay [4], in assay [5] and in assay [6] was greater than 100 µM in each case. The TGI in [7], in assay [8] and in assay [9] was greater than 100 µM throughout.

For `C/C=C/C(C/C=C(\C)CO[Si](C)(C)C(C)(C)C)O[Si](C)(C)C(C)(C)C` (stereo not given), the TGI in [1], in assay [2], in assay [3], in assay [5], in assay [6] and in [10] was greater than 100 µM each time. The TGI in assay [7], in assay [8] and in assay [9] was greater than 100 µM throughout.

As to `CCCCCCCCCCCCNC(=O)N[C@H](C(=O)N[C@H]1/C=C/OCCNC(=O)/C=C/[C@H](C(C)C)NC1=O)C(C)C`, the GI50 is greater than 66.3 µM in assay [1]; 6.82 µM in assay [2]; 0.682 µM in assay [3]; 2.15 µM in assay [4]; 7.99 µM in assay [6]; 0.599 µM in assay [10]. In addition, the GI50 was 20 µM in assay [7], 10.3 µM in assay [8] and 0.393 µM in assay [9]. The TGI is greater than 100 µM in assay [1]; greater than 92.7 µM in [2]; greater than 100 µM in [3]; greater than 55.2 µM in assay [4]; greater than 100 µM in assay [6]; 65.4 µM in assay [10]. For the same compound, the TGI is greater than 57.4 µM in assay [7], greater than 76.4 µM in assay [8] and 20.9 µM in assay [9].

Turning to `CCN(CC)c1ccc(C=C2C(=O)NC(=S)NC2=O)cc1`, the GI50 in assay [1] was 3.24 µM; in [2], 11.9 µM; in assay [3], 2.75 µM; in [4] it was 2.9 µM; in assay [5], 1.91 µM; in assay [6], 3.83 µM. Moreover, the GI50 in assay [10] was 1.86 µM; in assay [7] it was 2.49 µM; in [9], 1.69 µM. Also, the TGI in assay [1] was found to be 9.22 µM; in [2], 26.5 µM; in assay [3], 7.96 µM; in assay [4] it was 7.59 µM; in assay [5], 4.32 µM; in assay [6], 13.7 µM. Further, the TGI in assay [10] worked out at 3.64 µM; in assay [7], 6.62 µM; in assay [9], 10.3 µM.

Consider `CC1SC(c2ccc(OCc3ccccc3)cc2)N(NC(=O)C(O)(c2ccccc2)c2ccccc2)C1=O` (stereo not given), for which the GI50 in [1] is 2.74 µM; in assay [2], 3.81 µM; in assay [3], 2.08 µM; in assay [4], 4.06 µM; in assay [5], 3.61 µM; in assay [6], 3.66 µM. Also, the GI50 in [10] was 3.05 µM; in assay [7], 1.98 µM; in [8] it was 2.57 µM. Moreover, the TGI came to 12.7 µM in assay [1]; 16.1 µM in [2]; 6.85 µM in [3]; 15.3 µM in assay [4]; 12.7 µM in [5]; 15 µM in assay [6]. Besides, the TGI is 7.68 µM in assay [10], 4.26 µM in [7] and 14.3 µM in assay [8].

In the case of `COc1cc(-c2nn(-c3cccc(NC(=O)NCCNC(=O)c4ccccc4)c3)cc2-c2ccncc2)ccc1Cl`, the GI50 is 1.97 µM in assay [1]; 3.78 µM in assay [2]; 2.4 µM in [3]; 2.62 µM in [4]; 0.824 µM in assay [5]; 4.27 µM in assay [6]. Further, the GI50 is 0.965 µM in assay [10], 6.09 µM in assay [8] and 2.42 µM in [9]. Further, the TGI in assay [1], in assay [2], in [3], in assay [4], in assay [5] and in [6] was greater than 100 µM each time. In addition, the TGI in assay [10] was 23.6 µM; in assay [8], 63.7 µM; in assay [9], greater than 100 µM.

As to `Nc1nc(-c2ccccn2)c(-c2ccc3ncccc3n2)s1`, the GI50 in assay [1], in assay [2], in assay [3], in assay [4], in assay [5] and in assay [6] was greater than 25 µM in each case. The GI50 in [10], in [7] and in assay [8] was greater than 25 µM each time. Also, the TGI in assay [1], in [2], in assay [3], in assay [4], in assay [5] and in assay [6] was greater than 25 µM in each case. Besides, the TGI in [10], in assay [7] and in [8] was greater than 25 µM in each case.

`COc1cc2nc(NC3CCC3)nc(NC3CCN(C(C)C)CC3)c2cc1OC`: the GI50 in [1] is 2.16 µM; in assay [2], 4.01 µM; in [3], 3.51 µM; in assay [4] it was 1.95 µM; in assay [5] it was 2.49 µM; in [6], 2.5 µM. Besides, the GI50 was 1.75 µM in [10], 1.88 µM in [7] and 0.631 µM in [9]. Moreover, the TGI came out at 5.15 µM in assay [1]; 19.1 µM in [2]; 20.7 µM in assay [3]; 4.52 µM in assay [4]; 7.02 µM in assay [5]; 8.88 µM in assay [6]. The TGI in [10] was 3.97 µM; in assay [7], 3.81 µM; in assay [9], 3.33 µM.
